{"source": "patent EP0445948A2", "about": "“Prostaglandins for inhibiting cartilage damage” (G.D. Searle & Co., priority 1990, dated 1991)", "type_in_all_cases": "cell-based", "key": {"[1]": {"tested_on": "human articular cartilage", "test": "Effect of misoprostol on IL1-induced inhibition of GAG synthesis (35SO4 incorporation after CPC precipitation)", "conditions": "for 35SO4 uptake into GAG: 4 days, (SEM)", "protocol": "The effect of misoprostol on the action of IL1 on human articular cartilage. This experiment was undertaken to determine the action of misoprostol on IL1 action on cartilage. A total of 160 replicates were performed. The study investigated the inhibition of synthesis of GAG by human articular cartilage over the IL1 concentration range 0.01 - 1 ng/ml. Misoprostol was investigated in the range of 0.1 to 100 ng/ml.\nCartilage from a person was used in this experiment. The experimental period was kept to 4 days with the medium being changed every 24 hours. The tissue was pulsed at 4 days with 5 µCi/ml ³⁵SO₄ in the conventional manner and its incorporation in GAG measured after CPC precipitation."}, "articular cartilage": {"tested_on": "articular cartilage", "test": "Pig articular cartilage organ culture: incorporation of 3H-leucine into protein (index of cell viability)", "conditions": "0IL1 + Miso. 200ng/ml; (SEM)", "protocol": "(§1) A standard organ culture method was followed. Pieces of articular cartilage (4x1x1 mm) are cultured in DMEM and 5% fetal calf serum in an atmosphere of 5% CO₂ at 30°C. The culture medium was renewed every two days in an attempt to maintain the level of the compound undergoing evaluation. Integrity of the cartilage was determined by the retention of GAG using methylene blue dye technique, results were expressed as percentage remaining in the tissue at the end of the experiment. The synthetic activity of the chondrocytes was measured by the incorporation of^ 35SO₄ into GAG. In some of the evaluations incorporation of 3H-leucine into protein was measured as an index of cell viability.\n(§2) Human recombinant IL1 alpha at a concentration of 1 ng/ml (nanograms/milliliter). At this concentration it was responsible for 68% loss in GAG content over the 8 day period whereas the control with either misoprostol vehicle or misoprostol at 200 ng/ml only lost between 4 and 7%. The cartilage was incubated in the presence of IL1 and misoprostol at 50, 100 and 200 ng/ml. […] At 100 ng/ml the GAG loss is reduced to 34 percent."}, "IL1-treated cartilage [2]": {"tested_on": "IL1-treated cartilage", "test": "Pig articular cartilage organ culture: retention of GAG (methylene blue dye technique)", "protocol": "as §1, §2"}, "IL1-treated cartilage [3]": {"tested_on": "IL1-treated cartilage", "test": "Pig articular cartilage organ culture: incorporation of 35SO4 into GAG (synthetic activity of chondrocytes)", "conditions": "(SEM)", "protocol": "as §1, §2"}}, "data": [{"smiles": "CCCCC(C)(O)C/C=C/[C@H]1[C@H](O)CC(=O)[C@@H]1CCCCCCC(=O)OC", "note": "(mixture of isomers) [misoprostol, (+/-) methyl 11α,16-dihydroxy-16-methyl-9-oxoprost-13E-en-1-oate]", "values": [{"measurement": "protection against IL1-induced inhibition of GAG synthesis", "setting": "[1]; 0.01 ng/ml IL1 (50% inhibition level), misoprostol at 10 ng/ml and at 100 ng/ml", "value": "significant protection"}, {"measurement": "protection against the action of 0.01 ng/ml hrIL1α", "setting": "[1]; 0.01 ng/ml hrIL1α, misoprostol 100 ng/ml", "value": "complete protection"}, {"measurement": "protection against IL1-induced inhibition of GAG synthesis", "setting": "[1]; 0.1 ng/ml IL1, misoprostol 100 ng/ml", "value": "modest protective activity"}, {"measurement": "protection against IL1-induced inhibition of GAG synthesis", "setting": "[1]; 0.1 ng/ml IL1, misoprostol below 100 ng/ml", "value": "ineffective"}, {"measurement": "35SO4 uptake into GAG", "setting": "[1]; IL1 conc. 0.01 ng/ml, Misoprostol 0.1 ng/ml", "value": "3086 (306) cpm/mg"}, {"measurement": "35SO4 uptake into GAG", "setting": "[1]; IL1 conc. 0.01 ng/ml, Misoprostol 1.0 ng/ml", "value": "2919 (244) cpm/mg"}, {"measurement": "35SO4 uptake into GAG", "setting": "[1]; IL1 conc. 0.1 ng/ml, Misoprostol 0.1 ng/ml", "value": "1113 (119) cpm/mg"}, {"measurement": "35SO4 uptake into GAG", "setting": "[1]; IL1 conc. 0.1 ng/ml, Misoprostol 1.0 ng/ml", "value": "1062 (71) cpm/mg"}, {"measurement": "35SO4 uptake into GAG", "setting": "[1]; IL1 conc. 0.1 ng/ml, Misoprostol 10.0 ng/ml", "value": "1102 (165) cpm/mg"}, {"measurement": "35SO4 uptake into GAG", "setting": "[1]; IL1 conc. 1.0 ng/ml, Misoprostol 0.1 ng/ml", "value": "183 (23) cpm/mg"}, {"measurement": "35SO4 uptake into GAG", "setting": "[1]; IL1 conc. 1.0 ng/ml, Misoprostol 1.0 ng/ml", "value": "171 (14) cpm/mg"}, {"measurement": "35SO4 uptake into GAG", "setting": "[1]; IL1 conc. 1.0 ng/ml, Misoprostol 10.0 ng/ml", "value": "219 (28) cpm/mg"}, {"measurement": "35SO4 uptake into GAG", "setting": "[1]; IL1 conc. 1.0 ng/ml, Misoprostol 100.0 ng/ml", "value": "193 (26) cpm/mg"}, {"measurement": "Uptake of 3H Leucine", "setting": "articular cartilage", "value": "70.9 (4.8) cpm/mg"}, {"measurement": "% Retention of GAG in tissue", "setting": "IL1-treated cartilage [2]; 0IL1 + Miso. 200ng/ml, 8 day culture, (SEM)", "value": "95.6 (1.9) %"}, {"measurement": "GAG loss", "setting": "IL1-treated cartilage [2]; IL1 1 ng/ml + misoprostol 100 ng/ml, 8 days", "value": 34, "unit": "%"}, {"measurement": "inhibition of the IL1 effect (GAG loss)", "setting": "IL1-treated cartilage [2]; IL1 + misoprostol at 50, 100 and 200 ng/ml", "value": "highly significant inhibition"}, {"measurement": "direct effect on intact cartilage", "setting": "IL1-treated cartilage [2]; misoprostol without IL1", "value": "no direct affect"}, {"measurement": "Uptake of 35 SO4 into GAG", "setting": "IL1-treated cartilage [3]; 0IL1 + Miso. 200ng/ml", "value": "29.6 (1.2) cpm/mg x 10^3"}, {"measurement": "Uptake of 35 SO4 into GAG", "setting": "IL1-treated cartilage [3]; IL1 + Miso. 200ng/ml", "value": "6.3 (0.8) cpm/mg x 10^3"}]}]}
